This note sets out measurements from patent US12209102B2, “Heterocyclic compounds and uses thereof” (Kumquat Biosciences Inc., priority 2022, dated 2025).

Each structure is given as a SMILES string.

Assay [1] deals with T1, K-Ras G12S (Homo sapiens, UniProt P01116, G12S).
T1 construct: made in house; host or cells: E. coli BL21 (DE3)
The assay is described as follows: HTRF resonance energy transfer assay, K-Ras G12S / SOS1 interaction. Format: biochemical. The settings on record: HTRF assay of Example 5; read-out: IC50 against K-Ras G12S. The essentials:
(§1)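 GST-tagged K-Ras (WT or mutant) bound to anti-GST-Eu donor was mixed with His-hSOS1 bound to anti-6His-XL665 acceptor in ~5 mM HEPES pH 7.4, 150 mM NaCl, 1 mM DTT, 0.05% BSA, 0.0025% Igepal. HTRF (ex 337, em 620/665 nm) was read after ~10 min or longer. IC50 came from the 665/620 ratio over duplicates from 10 μM to 0.01 μM.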
(In TR-FRET formats the signal depends on donor and acceptor labels being close together.)

For assay [2], the target named is T2, K-Ras G12V (Homo sapiens, UniProt P01116, G12V).
T2 construct: made in house; host or cells: E. coli BL21 (DE3)
T2 sequence (P01116 1-188 isoform P01116-2 G12V): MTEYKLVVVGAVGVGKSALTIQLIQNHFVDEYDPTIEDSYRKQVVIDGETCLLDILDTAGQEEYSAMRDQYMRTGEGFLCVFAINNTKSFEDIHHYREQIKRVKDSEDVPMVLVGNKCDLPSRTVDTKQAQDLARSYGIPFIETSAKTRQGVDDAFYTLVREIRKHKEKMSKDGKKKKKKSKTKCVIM
The assay is described as follows: HTRF resonance energy transfer assay, K-Ras G12V / SOS1 interaction. Conditions: HTRF assay of Example 5; read-out: IC50 against K-Ras G12V. Format: biochemical. In a few lines: as §1

Assay [3] concerns the target T3, K-Ras WT (Homo sapiens, UniProt P01116).
T3 construct: made in house; host or cells: E. coli BL21 (DE3)
Briefly: HTRF resonance energy transfer assay, K-Ras WT / SOS1 interaction. Format: biochemical. The settings on record: HTRF assay of Example 5; read-out: IC50 against K-Ras WT. In a few lines: as §1

The test system of assay [4] is A549 cells. Briefly: Ras cellular assay, growth of cells with K-Ras G12S mutation (CellTiter-Glo). The class given is cell-based. Conditions: Homo sapiens, cell growth, Example 9, G12S mutation, read-out: IC50 against A549 cells. The method, then:
For example, this assay can be also used to assess a selective growth inhibition of a mutant Ras protein relative to a wildtype, or relative to a different mutant Ras protein.
A549 (ATCC CCL-185) and LS123 (ATCC CCL-255) cell lines comprise a G12S mutation and can be used to assess Ras cellular signaling in vitro, e.g., in response to the compounds herein. A549 culture medium is prepared with RPMI-1640 and 10% heat-inactivated FBS. LS123 culture medium is prepared with RPMI-1640 and 10% heat-inactivated FBS. A CellTiter-Glo (CTG) luminescent based assay (Promega) is used to assess growth of the cells, as a measurement of the ability of the compounds herein to inhibit Ras signaling in the cells. The cells (e.g., 800 per well) are seeded in their respective culture medium in standard tissue culture-treated 384-well format plates (Falcon #08-772-116) or ultra-low attachment surface 384-well format plates (S-Bio #MS-9384WZ). The day after plating, cells are treated with a dilution series (e.g., a 10 point 3-fold dilution series) of the compounds herein (e.g., approximately 40 μL final volume per well). Cell viability can be monitored (e.g., approximately 6 days later) according to the manufacturer's recommended instructions, where the CellTiter-Glo reagent is added (e.g., approximately 10 μL), vigorously mixed, covered, and placed on a plate shaker (e.g., approximately for 20 min) to ensure sufficient cell lysis prior to assessment of luminescent signal. The IC50 values are determined using the four parameter fit. The resulting IC50 value is a measurement of the ability of the compounds herein to reduce cell growth of Ras-driven cells (e.g., tumor cell lines) in vitro and/or in vivo.
(In ATP-based viability assays light output follows the ATP content of the culture.)

The test system of assay [5] is SW620 cells. Briefly: Ras cellular assay, growth of cells with K-Ras G12V mutation (CellTiter-Glo). Conditions: Homo sapiens, SW-620; cell growth, Example 9, G12V mutation; read-out: IC50 against SW620 cells. Format: cell-based. The essentials: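 SW620 (K-Ras G12V) cells, e.g. 800/well in RPMI-1640 with 10% heat-inactivated FBS on standard or ultra-low attachment plates, were dosed the day after plating with e.g. a 10-point 3-fold series. Viability by CellTiter-Glo luminescence about 6 days later; IC50 from four-parameter fit.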

T3 sequence (P01116 1-188 isoform P01116-2): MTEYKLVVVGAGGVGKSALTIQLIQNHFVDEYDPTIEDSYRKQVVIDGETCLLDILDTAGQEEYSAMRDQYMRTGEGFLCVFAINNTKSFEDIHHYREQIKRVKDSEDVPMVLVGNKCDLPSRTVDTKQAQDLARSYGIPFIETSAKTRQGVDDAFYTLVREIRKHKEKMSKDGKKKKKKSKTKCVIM
T1 sequence (P01116 1-188 isoform P01116-2 G12S): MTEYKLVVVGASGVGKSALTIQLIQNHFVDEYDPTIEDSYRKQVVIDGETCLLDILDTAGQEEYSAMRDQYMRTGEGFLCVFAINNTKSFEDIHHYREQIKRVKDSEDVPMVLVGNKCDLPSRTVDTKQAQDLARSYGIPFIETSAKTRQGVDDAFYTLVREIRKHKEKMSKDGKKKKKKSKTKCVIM

Regarding `N#Cc1c(N)sc2c(F)ccc(-c3c(Cl)c4c5c(nc(OC[C@@]67CCCN6C[C@H](F)C7)nc5c3F)N(C3CCC(=C(F)F)C3)CCO4)c12` (stereo partly drawn) [Compound 605, 2-amino-4-(8-chloro-4-(3-(difluoromethylene)cyclopentyl)-10-fluoro-2-(((2R,7aS)-2-fluorotetrahydro-1H-pyrrolizin-7a(5H)-yl)methoxy)-5,6-dihydro-4H-[1,4]oxazepino[5,6,7-de]quinazolin-9-yl)-7-fluorobenzo[b]thiophene-3-carbonitrile], the IC50 (commonly the concentration at which inhibition is half-maximal) in assay [1] was under 100 nM; in assay [2], under 100 nM; in assay [3], under 100 nM; in assay [4], under 5000 nM; in assay [5] it was under 5000 nM.
Regarding `CCC1CC(N2CCOc3c(Cl)c(-c4ccc(F)c5sc(N)c(C#N)c45)c(F)c4nc(OC[C@@]56CCCN5C[C@H](F)C6)nc2c34)CCO1` (stereo partly drawn) [Compound 903, 2-amino-4-(8-chloro-4-(2-ethyltetrahydro-2H-pyran-4-yl)-10-fluoro-2-(((2R,7aS)-2-fluorotetrahydro-1H-pyrrolizin-7a(5H)-yl)methoxy)-5,6-dihydro-4H-[1,4]oxazepino[5,6,7-de]quinazolin-9-yl)-7-fluorobenzo[b]thiophene-3-carbonitrile], the IC50 in assay [1] was under 100 nM; in assay [2], under 100 nM; in assay [3], under 100 nM; in assay [4], under 5000 nM; in assay [5], under 5000 nM.
On to `C[C@H](Oc1nc2c3c(c(Cl)c(-c4ccc(F)c5sc(N)c(C#N)c45)c(F)c3n1)OCCN2C1CCOCC1)[C@@H]1CCCN1C` [Compound 904, 2-amino-4-(8-chloro-10-fluoro-2-((S)-1-((S)-1-methylpyrrolidin-2-yl)ethoxy)-4-(tetrahydro-2H-pyran-4-yl)-5,6-dihydro-4H-[1,4]oxazepino[5,6,7-de]quinazolin-9-yl)-7-fluorobenzo[b]thiophene-3-carbonitrile], for which the IC50 in assay [1] was under 100 nM; in assay [2], under 100 nM; in assay [3], under 100 nM; in assay [4] it was under 5000 nM; in assay [5] it was under 5000 nM.
As to `N#Cc1c(N)sc2c(F)ccc(-c3c(Cl)c4c5c(nc(OC[C@@]67CCCN6C[C@H](F)C7)nc5c3F)N(C3CCC(COC(F)F)C3)CCO4)c12` (stereo partly drawn) [Compound 933, 2-amino-4-(8-chloro-4-(3-((difluoromethoxy)methyl)cyclopentyl)-10-fluoro-2-(((2R,7aS)-2-fluorotetrahydro-1H-pyrrolizin-7a(5H)-yl)methoxy)-5,6-dihydro-4H-[1,4]oxazepino[5,6,7-de]quinazolin-9-yl)-7-fluorobenzo[b]thiophene-3-carbonitrile], the IC50 was under 100 nM in assay [1]; under 100 nM in assay [2]; under 100 nM in assay [3]; under 5000 nM in assay [4]; under 5000 nM in assay [5].
Turning to `N#Cc1c(N)sc2c(F)ccc(-c3c(Cl)c4c5c(nc(OC[C@@]67CCCN6C[C@H](F)C7)nc5c3F)N(C3CC5(C3)CC5(F)F)CCO4)c12` (stereo partly drawn) [Compound 1004, 2-amino-4-(8-chloro-4-(1,1-difluorospiro[2.3]hexan-5-yl)-10-fluoro-2-(((2R,7aS)-2-fluorotetrahydro-1H-pyrrolizin-7a(5H)-yl)methoxy)-5,6-dihydro-4H-[1,4]oxazepino[5,6,7-de]quinazolin-9-yl)-7-fluorobenzo[b]thiophene-3-carbonitrile], the half-maximal inhibitory concentration (IC50) in assay [2] is under 100 nM; in assay [3] it was under 100 nM; in assay [4], under 5000 nM; in assay [5], under 5000 nM.
